Structures can show the parent of a compound that is named as a salt.
Tests used:
[1] = test system: participants diagnosed with at least moderate post-traumatic stress disorder (PTSD); assay: Double-blind, randomized, placebo-controlled clinical trial of methylone-assisted psychotherapy in PTSD; type: in vivo, human; conditions: for CAPS-5 assessments: Intervening Session 1C, 2C, 3C and Study Conclusion; for daytime sleepiness as measured by ESS / change in CAPS-5 assessment / clinician-rated functional impairment score as measured by SDS / depression as measured by HAM-D: at Study Conclusion; for change in CAPS-5 assessment: vs placebo group, with psychotherapy
Description: A multicenter, randomized, double-blind, placebo-controlled trial is conducted to assess the efficacy and safety of methylone-assisted psychotherapy versus psychotherapy with placebo control in participants diagnosed with at least moderate post-traumatic stress disorder (PTSD).
This multicenter, randomized, double-blind, placebo-controlled trial is conducted at various sites in the United States with IRB approval from each study site. A flexible dose of methylone hydrochloride salt or placebo, followed by a supplemental half-dose unless contraindicated by patient's previous response or medical history, is also administered during the Treatment Period with psychotherapy in at least 3 blinded monthly Experimental Sessions. The Supplemental Dose extends the duration of drug effects on the participants during an Experimental Session. Methylone test groups are further subdivided into specific groups receiving only racemic methylone hydrochloride salt, S-methylone hydrochloride salt, or R-methylone hydrochloride salt. An optional Risk Evaluation and Mitigation Strategy (REMS) Protocol may be implemented for the racemic methylone, S-methylone, and placebo-groups. The Treatment Period lasts for approximately 12 weeks. During the Treatment Period, each Experimental Session is followed by three Intervening Sessions of non-drug psychotherapy. Each Experimental Session involves an overnight stay. The Primary Outcome measure, the change in Clinician Administered PTSD Scale for DSM-5 (CAPS-5), is determined by a blinded Independent Rater (IR) pool multiple times throughout the study. The study consists of separate periods for each participant. Initially, prospective participants undergo a Screening Period involving an initial eligibility assessment, a medical history intake, informed consent, and enrollment of eligible participants. Next, a Preparation Period is undertaken for enrolled participants involving medication tapering and clinical baseline assessments to confirm each participant meets enrollment criteria. As part of the Preparation Period, a detailed assessment of co-morbidities to PTSD is recorded. Participants may remain on prescribed courses of selective serotonin reuptake inhibitor (SSRI) or serotonin and norepinephrine reuptake inhibitor (SNRI) treatment. Dosages and/or frequency of administration of a prescribed SSRI or SNRI may be adjusted to fit within study parameters. Participants may be required to taper a prescribed course of medication in order to maintain eligibility within the study. The Treatment Period consists of three monthly Experimental Sessions and associated Intervening Sessions of integrative behavioral psychotherapy. The Treatment Period lasts approximately 12 weeks. Following the Treatment Period is a Follow-up Period and Study Conclusion. During the Follow-up Period and Study Conclusion, participants complete 4 weeks with no study visits, followed by a Study Conclusion visit.
This study compares the effects of three blinded Experimental Sessions of psychotherapy in combination with flexible doses of methylone or placebo administered as described below. Non-drug preparatory and intervening psychotherapy sessions are also included. Patient's weight is determined for dosage calculation. Initial dose is 100 mg unless this will result in a dosage of less than 1.5 mg/kg of patient weight. Initial dose thereby adjusted upward in 25 mg increments to deliver the lowest dose possible of at least 1.5 mg/kg of patient weight. Initial dose for Experimental Session 2 and 3 is cumulative dose calculated by adding the initial dose plus REMS protocol dose used the previous Experimental Session for each patient.
Randomization occurs prior to the initiation of Experimental Session 1. Each participant is provided the next randomized number in a sequence by a blinded study monitor. […]

[2] = Plasma and brain concentration at end of zero maze study; type: in vivo, rat; conditions: end of zero maze study, 5, 15, 30 mg/kg ip, FIG. 68 and FIG. 69
Description: Terminal sampling. At the end of the study, terminal blood was collected from 2 of the vehicle treated rats (>5 mL) and from all methylone HCl treated rats (500 uL) by CP under CO2. Blood samples were placed into Eppendorf tubes on ice containing 22 μL/mL blood (vehicle treated) or 11 μL EDTA (93 mg/mL) (Methylone HCl treated rats) and gently mixed. After no longer than 30 min, blood samples were centrifuged at 10,000 rpm×3 min and plasma samples (>2 mL (vehicle) or 2×100 μL (Methylone HCl treated) placed into Eppendorf tubes (Vehicle) or 96 well plates on dry ice. Immediately after blood sampling, brains were excised, rinsed in saline, blotted, weighed and snap-frozen in liquid N2. All samples were stored at −20° C. until dispatched on dry ice for analysis.
Terminal sampling. At the end of the study, terminal blood was collected from 2 of the vehicle treated rats (>5 mL) and from all S-methylone HCl treated rats (500 uL) by CP under CO2. Blood samples were placed into Eppendorf tubes on ice containing 22 μL/mL blood (vehicle treated) or 11 μL EDTA (93 mg/mL) (S-methylone HCl treated rats) and gently mixed. […]

[3] = Solubility screen of methylone hydrochloride in solvents; type: physicochemical; conditions: thermodynamic from solid, visual
Description: The experiments were carried out by adding the test solvent in aliquots to weighed portions of solid. Whether dissolution had occurred was judged by visual inspection after addition of each solvent aliquot. Solubility numbers recorded in Table 4 were calculated by dividing the weight of the sample by the total amount of solvent used to dissolve the sample. The actual solubilities may be greater than the numbers calculated because of the use of solvent aliquots that were too large or because of slow dissolution rates. All solubility measurements were carried out at room temperature unless noted otherwise.

Compound | CAPS-5 assessments ([1]; vs placebo-treated controls) | adverse anxiogenic incidents ([1]; PTSD participants, vs placebo-treated controls) | daytime sleepiness as measured by ESS [1] | change in CAPS-5 assessment [1] | clinician-rated functional impairment score as measured by SDS ([1]; vs placebo-treated controls) | depression as measured by HAM-D ([1]; vs placebo-treated controls) | concentration in plasma and brain [2] | solubility ([3]; acetonitrile, organic solvent or mixture, ACN, room temperature) | solubility ([3]; chloroform, organic solvent or mixture, CHCl3, room temperature) | solubility ([3]; ethanol, organic solvent or mixture, EtOH, room temperature) | solubility ([3]; ethyl acetate (wet), organic solvent or mixture, EtOAc (wet), room temperature) | solubility ([3]; methanol, organic solvent or mixture, MeOH, room temperature) | solubility ([3]; methanol/chloroform 50/50, organic solvent or mixture, MeOH/CHCl3 50/50, room temperature) | solubility ([3]; organic solvent or mixture, Acetone, room temperature) | solubility ([3]; organic solvent or mixture, DMF, room temperature) | solubility ([3]; organic solvent or mixture, THF, room temperature) | solubility ([3]; water, H2O, room temperature) | total dosage of drug needed for significant mean reduction in CAPS-5, compared to racemic methylone-treated subgroup ([1]; PTSD participants)
CN[C@H](C)C(=O)c1ccc2c(c1)OCO2 [(R)-Methylone Hydrochloride, (R)-1-(Benzo[d][1,3]dioxol-5-yl)-2-(methylamino)propan-1-one Hydrochloride] | Significant improvements in CAPS-5 assessments | without a significant increase in adverse anxiogenic incidents | a significant improvement in lessening daytime sleepiness | a significant mean reduction in CAPS-5 assessment | a significant improvement in clinician-rated functional impairment score | a significant improvement depression |  |  |  |  |  |  |  |  |  |  |  | 
CNC(C)C(=O)c1ccc2c(c1)OCO2 (racemic) [(rac)-Methylone Hydrochloride, 3,4-methylenedioxy-N-methylcathinone hydrochloride] | Significant improvements in CAPS-5 assessments |  | a significant improvement in lessening daytime sleepiness | a significant mean reduction in CAPS-5 assessment | a significant improvement in clinician-rated functional impairment score | a significant improvement depression | increased in both brain and plasma at the higher doses | < 1000 µg/mL | < 1000 µg/mL | 8000 µg/mL | 9000 µg/mL | 48000 µg/mL | 45000 µg/mL | < 1000 µg/mL | 5000 µg/mL | < 1000 µg/mL | 47000 µg/mL | 
CN[C@@H](C)C(=O)c1ccc2c(c1)OCO2 [(S)-Methylone Hydrochloride, (S)-1-(Benzo[d][1,3]dioxol-5-yl)-2-(methylamino)propan-1-one Hydrochloride] | Significant improvements in CAPS-5 assessments |  | a significant improvement in lessening daytime sleepiness | a significant mean reduction in CAPS-5 assessment | a significant improvement in clinician-rated functional impairment score | a significant improvement depression |  |  |  |  |  |  |  |  |  |  |  | lower total dosage of drug

— patent US20240294488A1, “ISOTOPOLOGES, SALTS, CRYSTALLINE FORMS, STEREOISOMERS, OF METHYLONE AND ETHYLONE AND METHODS OF USE THEREOF” (Terran Biosciences Inc., priority 2021, published 2024)
